The values that follow come from patent US7176199B2, “Aryl-substituted alicyclic compound and medical composition comprising the same” (Dainippon Pharmaceutical Co., Ltd., priority 2001, dated 2007).

For orientation: IC50 means the concentration needed to halve the response being measured. High values mean a need for much substance, low ones inhibition by little substance.

The target of assay [1] is αvβ3 integrin (Homo sapiens, UniProt P05106+P06756). The assay is described as follows: Assay for the inhibition of αvβ3 integrin binding (vitronectin as ligand). The arrangement: purchased Chemicon International, Inc., USA. The following applies: inhibition of specific binding of biotinylated human vitronectin to immobilized αvβ3 integrin. On the procedure:
Experiment 1: Assay for the Inhibition of αvβ3 integrin binding
This experiment was carried out based on the method described in […].
Purified human αvβ3 integrin (Chemicon International, Inc., USA) was adjusted to a concentration of 1 μg/ml with TBS^++ [20 mM Tris-HCl (pH 7.4), 150 mM NaCl, 1 mM CaCl2, 1 mM MgCl2], and the diluted solution was added to plates (Labsystems, Finland) at 50 μl/well. The plate was left at 4° C. overnight for immobilization of the αvβ3 integrin. All subsequent steps were done at 25° C., and the procedure for each well was described hereafter.
The solution was discarded, and then 200 μl of TBS^++ containing 1% BSA (Wako Pure Chemical Industries, Ltd., Japan) was added to the well and left for one hour for blocking. The well was washed with a wash solution (TBS^++ containing 0.01% Tween 20) 4 times, and 50 μl of a reaction solution (TBS^++ containing 0.1% BSA and 0.01% Tween 20) was added to the well. Subsequently, 25 μl of a test compound solution adjusted to each concentration with the reaction solution was added, and then mixed with 25 μl of biotinylated (Amersham Pharmacia Biotech, UK) human vitronectin (Gibco BRL, USA) adjusted to 0.4 μg/ml with the reaction solution. The mixture was reacted for 2 hours. After washing 4 times with the wash solution, 100 μl of peroxidase-labeled streptoavidin (Amersham Pharmacia Biotech, UK) diluted 1:500 with the reaction solution was added to the well. Following 30 minutes reaction, the well was washed 4 times with the wash solution, and 100 μl of a TMB substrate solution (Bio-Rad Laboratories, USA) was added to the well. Color was developed for 20 minutes and the reaction was stopped by adding 100 μl of 0.5 M sulfuric acid.
The absorbance at 450 nm was measured with a plate reader (Molecular Devices, USA) to obtain a total binding. To obtain a nonspecific binding, EDTA adjusted to 20 mM with the reaction solution was added instead of the test compound solution. A specific binding was calculated by subtracting the nonspecific binding from the total binding.

For assay [2], the target named is T1, αIIbβ3 integrin (Homo sapiens, UniProt P05106+P08514).
T1 construct: from tissue; host or cells: human platelets (Triton X-100 lysate)
T1 sequence (P08514 32-887 limits assumed): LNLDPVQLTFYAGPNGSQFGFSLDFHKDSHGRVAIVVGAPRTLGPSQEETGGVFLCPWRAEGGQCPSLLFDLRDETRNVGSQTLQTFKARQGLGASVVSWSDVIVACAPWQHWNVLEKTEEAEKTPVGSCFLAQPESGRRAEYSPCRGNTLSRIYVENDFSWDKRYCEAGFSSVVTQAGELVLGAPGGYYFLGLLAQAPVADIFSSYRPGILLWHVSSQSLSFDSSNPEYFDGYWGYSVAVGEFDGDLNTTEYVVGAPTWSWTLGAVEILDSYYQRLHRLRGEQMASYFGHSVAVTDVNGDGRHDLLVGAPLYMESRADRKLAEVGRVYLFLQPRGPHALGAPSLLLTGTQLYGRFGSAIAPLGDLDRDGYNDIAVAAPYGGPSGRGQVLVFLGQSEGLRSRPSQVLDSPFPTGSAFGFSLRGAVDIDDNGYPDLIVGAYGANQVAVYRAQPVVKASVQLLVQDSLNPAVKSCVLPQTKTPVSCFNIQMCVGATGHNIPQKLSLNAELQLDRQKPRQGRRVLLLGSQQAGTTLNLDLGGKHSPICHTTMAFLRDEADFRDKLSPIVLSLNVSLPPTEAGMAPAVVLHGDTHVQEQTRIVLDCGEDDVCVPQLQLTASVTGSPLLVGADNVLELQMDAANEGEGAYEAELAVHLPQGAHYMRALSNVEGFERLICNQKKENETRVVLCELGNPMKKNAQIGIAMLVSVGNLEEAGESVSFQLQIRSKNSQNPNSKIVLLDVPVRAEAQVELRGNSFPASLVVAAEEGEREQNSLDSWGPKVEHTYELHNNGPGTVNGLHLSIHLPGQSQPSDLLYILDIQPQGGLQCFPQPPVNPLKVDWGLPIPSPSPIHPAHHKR
T1 sequence (P08514 891-1039 partner limits assumed): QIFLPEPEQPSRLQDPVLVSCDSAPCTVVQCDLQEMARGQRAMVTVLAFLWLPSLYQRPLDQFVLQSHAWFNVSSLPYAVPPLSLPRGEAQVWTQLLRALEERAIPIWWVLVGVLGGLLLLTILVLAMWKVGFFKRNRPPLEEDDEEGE
T1 sequence (P05106 27-788): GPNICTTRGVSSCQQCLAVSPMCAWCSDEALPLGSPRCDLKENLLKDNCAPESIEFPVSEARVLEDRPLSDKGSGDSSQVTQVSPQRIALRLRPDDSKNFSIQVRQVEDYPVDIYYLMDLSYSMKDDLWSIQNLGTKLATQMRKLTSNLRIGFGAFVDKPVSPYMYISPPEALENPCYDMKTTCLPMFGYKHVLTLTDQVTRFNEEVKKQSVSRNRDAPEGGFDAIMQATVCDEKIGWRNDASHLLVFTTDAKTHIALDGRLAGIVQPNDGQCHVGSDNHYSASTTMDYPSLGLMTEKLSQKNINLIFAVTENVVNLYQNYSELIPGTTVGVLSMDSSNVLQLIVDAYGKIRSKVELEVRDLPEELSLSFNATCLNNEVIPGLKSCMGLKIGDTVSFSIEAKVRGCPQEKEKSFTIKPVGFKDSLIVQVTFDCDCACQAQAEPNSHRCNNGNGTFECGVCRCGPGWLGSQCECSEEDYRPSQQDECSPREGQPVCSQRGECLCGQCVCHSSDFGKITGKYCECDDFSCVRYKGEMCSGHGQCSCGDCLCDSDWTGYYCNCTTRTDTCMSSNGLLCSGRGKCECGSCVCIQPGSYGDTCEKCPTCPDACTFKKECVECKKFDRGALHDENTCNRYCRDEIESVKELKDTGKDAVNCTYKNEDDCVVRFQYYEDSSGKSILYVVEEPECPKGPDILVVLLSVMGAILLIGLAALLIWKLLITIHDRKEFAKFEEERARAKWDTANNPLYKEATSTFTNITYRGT
The assay is described as follows: Assay for the inhibition of αIIbβ3 integrin binding (fibrinogen as ligand, integrin captured from platelet lysate). The following applies: inhibition of specific binding of biotinylated fibrinogen to αIIbβ3 integrin from human platelet lysate. The method, then:
Experiment 2: Assay for the Inhibition of αIIbβ3 Integrin Binding
This experiment was carried out based on the method described in Thromb. Haemostasis, 75, 339 (1996), Blood, 93, 2559 (1999), using fibrinogen as a ligand. According to the method described in the above literatures, assay for the inhibition of αIIbβ3 integrin binding can be achieved by capturing αIIbβ3 integrin from platelet lysate with the use of an activated antibody against αIIbβ3 integrin.
Human platelets were isolated in a conventional manner. At 25° C., the isolated platelets were adjusted to a concentration of 1.25×10^9/ml with TBS+[50 mM Tris-HCl (pH 7.4), 150 mM NaCl, 2 mM CaCl2], and then ⅛ volume of TBS^+ containing 2 mM leupepsin and 10 mM PMSF was added and stirred gently. Nest, 1/9 volume of TBS+ containing 10% Triton X-100 was added and stirred gently. After standing on ice for 30 minutes, a platelet lysate was prepared from the mixture by discarding the insoluble fraction with centrifugation (10,000 g, 15 minutes).
Anti-mouse IgG goat antibody (Jackson Immunoresearch Laboratories, Inc., USA) was adjusted to a concentration of 5 μg/ml with sodium carbonate buffer (pH 9.6) and added to plates at 50 μl/well. The plate was left at 4° C. overnight for immobilization of the antibody. All subsequent steps were done at 25° C., and the procedure for each well was described hereafter.
The well was washed once with TBS^+, and then 200 μl of TBS^+ containing 5% BSA was added to the well and left for one hour for blocking. The well was washed with a reaction solution (TBS^+ containing 0.1% BSA and 0.05% Triton X-100) 4 times, and then 50 μl of anti-human αIIbβ3 integrin activated monoclonal antibody (TAKARA SHUZO CO., LTD, Japan, PT25-2 strain) adjusted to 5 μg/ml with the reaction solution was added to the well. After one hour reaction, the well was washed 4 times with the reaction solution, and 50 μl of the platelet lysate diluted 1:2 with the reaction solution was added to the well. Following 2 hours reaction, the well was washed 4 times with the reaction solution, and 50 μl of the reaction solution was added to the well. Subsequently, 25 μl of a test compound solution adjusted to each concentration with the reaction solution was added, and then mixed with 25 μl of biotinylated fibrinogen (Calbiochem, Germany) adjusted to 2 μg/ml with the reaction solution. The mixture was reacted for one hour. After washing 4 times with the reaction solution, 100 μl of alkaline phosphatase-labeled streptoavidin (Gibco BRL, USA) diluted 1:500 with the reaction solution was added to the well. Following 30 minutes reaction, the well was washed 4 times with the wash solution. Next, 50 μl of the NaDPH solution (Invitrogen, former company name: Gibco BRL, USA) was added and reacted for 20 minutes, and then 50 μl of an amplification solution containing diaphorase and alcohol dehydrogenase (Invitrogen, former company name: Gibco BRL, USA) was added. Color was developed for 20 minutes and the reaction was stopped by adding 50 μl of 0.5 M sulfuric acid.
The absorbance at 495 nm was measured with a plate reader to obtain a total binding. To obtain a nonspecific binding, EDTA adjusted to 20 mM with the reaction solution was added instead of the test compound solution. A specific binding was calculated by subtracting the nonspecific binding from the total binding.

Where only a bound is given, the exact number is not on record here.

αvβ3 integrin, sequence (P06756 31-889 limits assumed): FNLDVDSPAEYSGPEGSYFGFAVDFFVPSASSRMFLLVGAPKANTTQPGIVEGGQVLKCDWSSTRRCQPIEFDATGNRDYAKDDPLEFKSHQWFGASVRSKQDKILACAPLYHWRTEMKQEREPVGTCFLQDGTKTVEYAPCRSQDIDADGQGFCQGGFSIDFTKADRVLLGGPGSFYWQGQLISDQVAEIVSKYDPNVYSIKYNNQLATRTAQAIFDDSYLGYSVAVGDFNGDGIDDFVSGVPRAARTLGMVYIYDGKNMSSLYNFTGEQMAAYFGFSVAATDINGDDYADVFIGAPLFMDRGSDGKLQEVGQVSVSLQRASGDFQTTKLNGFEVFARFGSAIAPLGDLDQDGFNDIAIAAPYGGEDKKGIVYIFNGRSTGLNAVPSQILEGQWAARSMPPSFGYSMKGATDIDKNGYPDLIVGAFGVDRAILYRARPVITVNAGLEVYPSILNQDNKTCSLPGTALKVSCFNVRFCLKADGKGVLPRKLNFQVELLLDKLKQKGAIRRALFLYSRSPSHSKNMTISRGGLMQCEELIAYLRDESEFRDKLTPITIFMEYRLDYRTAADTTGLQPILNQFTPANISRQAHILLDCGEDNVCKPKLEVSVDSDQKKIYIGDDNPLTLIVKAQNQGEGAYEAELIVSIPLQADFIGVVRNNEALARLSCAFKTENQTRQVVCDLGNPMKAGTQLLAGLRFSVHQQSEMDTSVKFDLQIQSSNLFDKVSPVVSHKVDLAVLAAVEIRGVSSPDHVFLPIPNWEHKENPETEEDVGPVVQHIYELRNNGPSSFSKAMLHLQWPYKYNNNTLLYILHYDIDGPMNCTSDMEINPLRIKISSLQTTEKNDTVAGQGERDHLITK
αvβ3 integrin, sequence (P06756 891-1048 partner limits assumed): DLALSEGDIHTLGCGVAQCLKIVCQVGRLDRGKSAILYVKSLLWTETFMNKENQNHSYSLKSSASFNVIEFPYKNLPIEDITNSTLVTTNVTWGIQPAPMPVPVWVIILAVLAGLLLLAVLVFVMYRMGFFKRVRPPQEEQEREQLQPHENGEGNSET
αvβ3 integrin, sequence (P05106 27-788): as the sequence (P05106 27-788) above

Take `CCCCCCOC(=O)N[C@@H](CNC(=O)C1CCN(c2cccc(NC3=NCCCN3)c2)CC1)C(=O)O` [Ex. 88, (2S)-2-hexyloxycarbonylamino-3-[[1-[3-(1,4,5,6-tetrahydropyrimidin-2-yl)aminophenyl]piperidin-4-yl]carbonylamino]propanoic acid]: the IC50 in assay [1] was determined as 0.051 nM; in assay [2], 26 nM.

As for `CCCCCCOC(=O)N[C@@H](CCC(=O)N1CCN(c2cccc(NC3=NCCCN3)c2)CC1)C(=O)O` [Ex. 137, (2S)-2-hexyloxycarbonylamino-5-[4-[3-(1,4,5,6-tetrahydropyrimidin-2-yl)aminophenyl]piperazin-1-yl]-5-oxopentanoic acid], the IC50 in assay [1] was found to be 0.28 nM; in assay [2], 880 nM.

With `COCCOC(=O)N[C@@H](CNC(=O)C1CCN(c2cccc(NC3=NCCCN3)c2)CC1)C(=O)O` [Ex. 94, (2S)-2-(2-methoxyethoxycarbonylamino)-3-[[1-[3-(1,4,5,6-tetrahydropyrimidin-2-yl)aminophenyl]piperidin-4-yl]carbonylamino]-propanoic acid], the figures for the IC50 in assay [1] and in assay [2] were 0.21 nM and 60 nM, respectively.

As to `CC(C)COC(=O)N[C@@H](CNC(=O)C1CCN(c2cccc(NC3=NCC(F)CN3)c2)CC1)C(=O)O` (stereo partly drawn) [Ex. 19, (2S)-2-isobutoxycarbonylamino-3-[[1-[3-(5-fluoro-1,4,5,6-tetrahydropyrimidin-2-yl)aminophenyl]piperidin-4-yl]carbonylamino]-propanoic acid], the IC50 was found to be 0.032 nM in assay [1] and 100 nM in assay [2].

For the molecule `Cc1cc(N2CCC(C(=O)NC[C@H](NC(=O)OCc3ccccc3)C(=O)O)CC2)nc(NC2=NCCCN2)n1` [Ex. 150, (2S)-2-benzyloxycarbonylamino-3-[[1-[2-(1,4,5,6-tetrahydropyrimidin-2-yl)amino-6-methylpyrimidin-4-yl]piperidin-4-yl]-carbonylamino]propanoic acid], the IC50 in assay [1] is 0.081 nM; in assay [2], 52 nM.

Consider `O=C(N[C@@H](CNC(=O)C1CCN(c2cccc(NC3=NCC(F)CN3)c2)CC1)C(=O)O)OCc1ccccc1` (stereo partly drawn) [Ex. 13, (2S)-2-benzyloxycarbonylamino-3-[[1-[3-(5-fluoro-1,4,5,6-tetrahydropyrimidin-2-yl)aminophenyl]piperidin-4-yl]carbonylamino]-propanoic acid], for which the IC50 in assay [1] amounted to 0.042 nM; in assay [2], 59 nM.

Regarding `CC(C)(C)COC(=O)N[C@@H](CNC(=O)C1CCN(c2cccc(NC3=NCCCN3)c2)CC1)C(=O)O` [Ex. 93, (2S)-2-neopentyloxycarbonylamino-3-[[1-[3-(1,4,5,6-tetrahydropyrimidin-2-yl)aminophenyl]piperidin-4-yl]carbonylamino]propanoic acid], the 50% inhibitory concentration (IC50) turned out to be 0.2 nM in assay [1] and 150 nM in assay [2].

Regarding `O=C(N[C@@H](CNC(=O)C1CCN(c2cccc(NC3=NCCCCN3)c2)CC1)C(=O)O)OCc1ccccc1` [Ex. 10, (2S)-2-benzyloxycarbonylamino-3-[[1-[3-(1H-4,5,6,7-tetrahydro-1,3-diazepin-2-yl)aminophenyl]piperidin-4-yl]carbonylamino]propanoic acid], the half-inhibitory concentration (IC50) in assay [1] turned out to be 0.075 nM; in assay [2], 74 nM.

For the molecule `CC(C)COC(=O)N[C@@H](CNC(=O)C1CCN(c2cccc(NC3=NCC(C)(C)CN3)c2)CC1)C(=O)O` [Ex. 18, (2S)-2-isobutoxycarbonylamino-3-[[1-[3-(5,5-dimethyl-1,4,5,6-tetrahydropyrimidin-2-yl)aminophenyl]piperidin-4-yl]carbonylamino]-propanoic acid], the IC50 stood at 0.13 nM in assay [1] and 310 nM in assay [2].

Consider `O=C(NCc1ccccc1)Nc1cccc(N2CCC(C(=O)NC[C@H](NC(=O)OCc3ccccc3)C(=O)O)CC2)c1` [Ex. 30, (2S)-3-{[1-[3-(benzylaminocarbonyl)aminophenyl]-piperidin-4-yl}carbonylamino]-2-(benzyloxycarbonylamino)propanoic acid], for which the half-maximal inhibitory concentration (IC50) is 5.1 nM in assay [1] and 4600 nM in assay [2].

On to `O=C(N[C@@H](CNC(=O)C1CCN(c2cc(NC3=NCC(F)CN3)ccn2)CC1)C(=O)O)OCc1ccccc1` (stereo partly drawn) [Ex. 160, (2S)-2-benzyloxycarbonylamino-3-[[1-[4-(5-fluoro-1,4,5,6-tetrahydropyrimidin-2-yl)aminopyridin-2-yl]piperidin-4-yl]carbonylamino]-propanoic acid], for which the IC50 in assay [1] stood at 0.046 nM; in assay [2], 67 nM.

Take `O=C(N[C@@H](CNC(=O)C1CCN(c2cc(F)cc(NC3=NCCCN3)c2)CC1)C(=O)O)OCc1ccccc1` [Ex. 156, (2S)-2-benzyloxycarbonylamino-3-[[1-[5-fluoro-3-(1,4,5,6-tetrahydropyrimidin-2-yl)aminophenyl]piperidin-4-yl]carbonylamino]-propanoic acid]: the IC50 is 0.055 nM in assay [1] and 43 nM in assay [2].

Regarding `Cc1ccc(N2CCC(C(=O)NC[C@H](NC(=O)OCc3ccccc3)C(=O)O)CC2)cc1NC1=NCCCN1` [Ex. 153, (2S)-2-benzyloxycarbonylamino-3-[[1-[4-methyl-3-(1,4,5,6-tetrahydropyrimidin-2-yl)aminophenyl]piperidin-4-yl]-carbonylamino]propanoic acid], the half-inhibitory concentration (IC50) was found to be 0.14 nM in assay [1] and 94 nM in assay [2].

Consider `COc1ccc(NC2=NCCCN2)cc1N1CCC(C(=O)NC[C@H](NC(=O)OCc2ccccc2)C(=O)O)CC1` [Ex. 152, (2S)-2-benzyloxycarbonylamino-3-[[1-[2-methoxy-5-(1,4,5,6-tetrahydropyrimidin-2-yl)aminophenyl]piperidin-4-yl]carbonylamino]propanoic acid], for which the IC50 came to 0.055 nM in assay [1] and 13 nM in assay [2].

In the case of `CCCCCCOC(=O)N[C@@H](CCC(=O)N1CCN(c2cccc(NC3=NCC(F)CN3)c2)CC1)C(=O)O` (stereo partly drawn) [Ex. 130, (2S)-2-hexyloxycarbonylamino-5-[4-[3-(5-fluoro-1,4,5,6-tetrahydropyrimidin-2-yl)aminophenyl]piperazin-1-yl]-5-oxopentanoic acid], the IC50 was 0.058 nM in assay [1] and > 1000 nM in assay [2].

As for `CCCCCCOC(=O)N[C@@H](CCC(=O)N1CCN(c2cccc(NC3=NCC(O)CN3)c2)CC1)C(=O)O` (some centres unmarked) [Ex. 131], the IC50 in assay [1] turned out to be 0.3 nM; in assay [2], 57 nM.
